These results are taken from PMC3806459, “Cyclodextrin Formulation of the Marine Natural Product Pseudopterosin A Uncovers Optimal Pharmacodynamics in Proliferation Studies of Human Umbilical Vein Endothelial Cells” (Marine Drugs, 2013).

Series [1] in a line: log P by reverse phase HPLC. In kind it is physicochemical. The settings on record: RP-HPLC retention time vs toluene and triphenylene; n = 4; read-out: Direct log P. An excerpt: Reverse phase HPLC (RP-HPLC) has been previously used to measure the logarithm of the octanol-water partition coefficient (log P) of many compounds [11]. To obtain the log P values recorded herein, the retention times of the compounds of interest (Table 1) along with the retention times of internal standards (toluene and triphenylene) were utilized. The resulting quantities were then substituted into Equation 1: [drawing 1] (1) where the abbreviation tol refers to toluene, triph to triphenylene, and t to the retention time. Details concerning how this equation was derived have been described by Donovan and Pescatore.
HPLC recordings were achieved using a Hewlett Packard HP/Agilent 1100 HPLC system connected to a 1 cm × 4.6 mm, 5 µm aPHera™ C18 Polymer HPLC column (catalog number 56130AST). Colorimetric assays were performed on a Molecular Devices Vmax microplate reader.

Series [2] deals with PMA induced mouse ear edema. Nature of the series: phorbol myristate acetate (PMA) induced mouse ear edema assay. It is filed as in vivo. The settings on record: topical 50 µg/ear with PMA 2 µg/ear, 3 h 20 min; (1/SA) in milligrams of inhibited edema per mol of drug; n = 10. As to the method: The compounds were then assessed using the standard phorbol myristate acetate (PMA) induced mouse ear edema assay to determine their anti-inflammatory specific activity. In this assay, the specific activity of the drug, SA, is expressed as log(1/SA). For the mouse ear model, the molar concentration of the drug was calculated using Equation 2: SA = (mol of drug) (∆ in edema from control)^−1(2) where the difference in edema from control, ∆, refers to the difference in the average weight of the mouse ear between treated and untreated biopsies. The outcome, (1/SA), is expressed in units of milligrams of inhibited edema per mol of drug. […] Note Table 1.
Male Swiss Webster albino mice were briefly anesthetized with halothane. Compounds were topically applied to the inside pinnae of the ears of the mice in a solution containing the edema-causing irritant PMA. PMA alone (2 µg/ear) or in combination with the test compound (50 µg/ear) were dissolved in acetone and applied to the left ears (5 mice per treatment group, n = 10/compound), and acetone alone was applied to all right ears. After 3 h and 20 min incubation, the mice were euthanized, the ears removed and a 6 mm diameter biopsy was taken from the center of each ear and immediately weighed. Edema was measured by subtracting the weight of the right ear (acetone control) from the weight of the left ear (treated). Compounds that were not soluble in 100% acetone were dissolved in 20% ethanol: 80% acetone v/v. Results were recorded as % decrease (inhibition) in edema relative to the PMA control group edema.

Series [3] has as its system HUVEC cells. Nature of the series: WST-1 cell proliferation assay. In kind it is cell-based, human. As to the method: Figure 4 PsA Potently Activates HUVEC Proliferation. […] Note saturation kinetics. Cytotoxicity is illustrated as a vertical dashed line at 1.5 × 10^−5 M in all vehicles tested. The percentage increase was calculated as [100 × (T/C)] where T/C is defined as […]. Data are presented as mean ± SEM (n = 16).
(§1) For each experiment cells were split at 80% confluence. All experiments were conducted between generations 4 and 10.
HUVEC were harvested from a T-75 plate by trypsinization and resuspended in EGM-2 complete culture media. Cells were plated at 500 cells per well of a 96-well plate and incubated overnight at 37 °C in a 5% CO2 atmosphere. EGM-2 complete culture media was removed and replaced with starvation media for 8 h. During this time, drug dilutions were prepared in growth factor depleted media. Starvation media was replaced with drug dilution in growth factor depleted media and incubated at 37 °C in a 5% CO2 atmosphere. After 41 h, 10 µL of WST-1 reagent was added to each well and incubated for 1 h. Plates were then read on a multiplate reader at 450 nm with background reference of 650 nm.

The subject of series [4] is HUVEC cells. As to the kind of experiment: scratch migration assay. In kind it is cell-based, human. The settings on record: 3.9 × 10^−8 M PsA in 0.05% HPβCD, depleted media, over 10 h; n = 16. As to the method:
The in vitro scratch assay is commonly used to simulate cellular events that accompany the presence of a wound. Here, a thin scratch made in a cellular monolayer mimics the wound. The migration of cells in response to the scratch is then monitored using microscopic images at various time points to determine the rate of migration.
as §1
HUVEC were harvested from a T-75 plate by trypsinization and resuspended in EGM-2 complete culture media and were plated into T-25 cell culture flasks and allowed to grow to approx 90% confluence. EGM-2 complete culture media was then removed and replaced with starvation media for 8 h. A uniform scratch in the monolayer was then produced using a sterile pipette tip approximately 500 µm in width. Starvation media was replaced with 5 mL of either PsA in drug dosing media, or HPβCD in drug dosing media, or HPβCD in EGM-2 complete culture media. Microscopic images were taken at 400 times magnification every 5 min beginning at t = 0, and continuing until t = 10 h. Images were analyzed by determining the distance between cells on either side of scratch over time. Percent scratch closure was set to be a function of 1 − (average distance at each time point/average width of scratch).

A short description of series [5]: stability of the cyclodextrin inclusion complex by HPLC and NMR. The settings on record: PsA inclusion complex in HPβCD; observed by HPLC and NMR. It is filed as physicochemical. The procedure: Hydroxypropyl-beta-cyclodextrin (HPβCD) was added to DI-water at a concentration of 20% w/v. The mixture was then vortexed and sonicated briefly to yield a colorless, transparent, slightly viscous liquid. Separately, a given quantity of pseudopterosin A (PsA) was then solubilized in 100% methanol to yield a yellow, transparent liquid. An aliquot of this solution was then added to a culture tube and dried under inert atmosphere yielding an off-white solid. The previously prepared hydroxypropyl-beta-cyclodextrin solution was then added and vortexed for 10 min. The mixture was orbitally shaken at 4 °C for at least 7 days prior to use to ensure equilibration of the cyclodextrin drug complex. […] Stability was conserved at least 14 days, as observed by HPLC and NMR.

A short description of series [6]: aqueous solubility. It is filed as physicochemical. The settings on record: without DMSO, Cremophor or cyclodextrin. The text has this:
[…] Reverse phase HPLC was utilized as described in Section 3.3 above to confirm the quantity of solubilized drug that remained unchanged between formulations.

Series [7] concerns human adenosine A1 receptor. Also on record: method as in doi:10.1016/j.tet.2009.09.021. The note with it: DMSO formulation; high amount of non-specific binding; ref [4]; cited from earlier work.
Series [8] has as its system human adenosine A2A receptor. Also on record: method as in doi:10.1016/j.tet.2009.09.021. The note with it: DMSO formulation; high amount of non-specific binding; ref [4]; cited from earlier work.
Series [9] has as its system human adenosine A2B receptor. Also noted: method as in doi:10.1016/j.tet.2009.09.021. The note with it: DMSO formulation; high amount of non-specific binding; ref [4]; cited from earlier work.
Series [10] concerns human adenosine A3 receptor. Also noted: method as in doi:10.1016/j.tet.2009.09.021. The settings on record: DMSO formulation; high amount of non-specific binding; ref [4]; cited from earlier work.
Series [11] relates to human neutrophils. Also on record: method as in ref [3] = [3]; 3. Luedke E.S. The Identification and Characterization of Pseudopterosins: Anti-Inflammatory Agents Isolated from the Gorgonian Coral Pseudopterogorgia elisabethae Ph.D. Thesis University of Californi. The settings on record: in vitro; ref [3]; cited from earlier work.
Series [12] concerns HUVEC cells. Also on record: method as in PMID 2875457, PMID 3574294, PMID 21556163. The settings on record: all formulation systems tested; ref [1],[22],[23]; cited from earlier work.
Series [13] relates to HUVEC cells. Nature of the series: HUVEC cytotoxicity elicited by drug formulations (LDH release). The settings on record: vehicle alone: 0.02% DMSO, 0.016% Cremophor EL, 0.05% HPβCD; 42 h, growth factor depleted media, 37 °C; n = 4. For orientation: LDH leaks from cells whose membrane has failed.
Protocol: HUVEC LDH release with (A) 0.02% DMSO (B) 0.016% Cremophor EL and (C) 0.05% HPβCD after 42 h in growth factor depleted media at 37 °C. Data are presented as mean ± SEM (n = 4).
Dimethylsulfoxide (DMSO) is the most widely utilized solvent, and is used extensively in biological assays for attaining aqueous solubility for non-polar drug molecules. To determine the potential cytotoxic effects associated with DMSO, Cremophor EL, and HPβCD in a HUVEC system, we report three conditions that were chosen after considering the minimum required vehicle concentration for PsA (drug) solubility.
All cell culture experiments were performed using HUVEC cells initially seeded at 3 × 10^5 cells/75 cm^2 flask and fed every 1–2 days with fresh EGM-2 complete culture media (EBM-2 basal media with hVEGF, hFGF, hIGF, hEGF, hydrocortisone, ascorbic acid, heparin, 2% FBS, and GA-1000). For each experiment cells were split at 80% confluence. All experiments were conducted between generations 4 and 10. Starvation media consisted of EBM-2 basal media with 0.1% FBS, and GA-1000 (antibiotic mixture). Growth factor depleted media consisted of EBM-2 basal media with 2% FBS, hydrocortisone, ascorbic acid, heparin, and GA-1000.
For series [14], the system named is wound healing. Also noted: method as in PMID 20363514. The note with it: topical; ref [5]; cited from earlier work.
Series [15] relates to early wound repair. Also on record: method as in ref [7] = [7]; 7. Vimrx Pharmaceuticals New Drug Application VM 301 for Use in Phase I/IIA Clinical Trials IND 60,606 12 7 2000. The note with it: Phase II, double blind; ref [7]; cited from earlier work.

The Kd is the concentration at which binding is half-saturated. Turning to `CC(C)=C[C@H]1C[C@H](C)[C@H]2CC[C@H](C)c3c(O[C@@H]4OC[C@@H](O)[C@H](O)[C@H]4O)c(O)c(C)c1c32` [Analog 4, Pseudopterosin A], the chromatographic logP in series [1] was 4.42 ± 0.06. In addition, the “log(1/SA) (anti-inflammatory specific activity)” value (“log(1/SA)” below) in series [2] turned out to be 8.08 ± 0.01 mg/mol. The increase in proliferation in [3] (1.0 × 10^−7 M PsA in HPβCD) is listed as 25%; in series [3] (PsA in 0.02% DMSO, 42 h, compared to DMSO alone), 30% ± 4.8%. Also, the “increase in potency of HPβCD formulation over DMSO formulation” value in series [3] (HUVEC proliferation) is recorded as 200 fold. Further, the “increased HUVEC proliferation” value in series [3] (PsA in 0.016% Cremophor EL, 42 h) worked out at 15%. Binding in series [3] (PsA in 0.05% HPβCD, from analysis of proliferation dose response) was characterised by a dissociation constant (Kd) of 14.5 nM. For the same compound, the “concentration at which cytotoxicity occurred” value in [3] (all formulations/vehicles tested in HUVEC cells) is no less than 15 µM. Besides, in [4], the “rate of HUVEC cell migration” value came to 9.98 ± 1.2 µm h^−1. The stability conserved result in series [5] is reported as “at least 14 days”. Also, the “solubility in an aqueous medium” value in series [6] is listed as “low solubility”. For the same compound, the binding affinity result in [7], in series [8], in [9] and in series [10] was “micromolar” throughout. Also, the “effect on calcium ionophore induced degranulation and infiltration” value in series [11] is listed as “inhibited”. The cytotoxic concentration in [12] is greater than 10 µM.
In the case of `C[S+](C)[O-]` [DMSO, Dimethylsulfoxide], the “LDH release (cytotoxicity)” value in series [13] is on record as 18.4% ± 1.6%.
As for `CC(C)=CC1CC(C)C2CCC(C)C3=C2C1=C(C)C(=O)C31OC2OC(C)C(O)C(O)C2O1` (stereo not shown) [Analog 1, pseudopterosin keto ketal], in [1], the chromatographic logP stood at 3.95 ± 0.02. Moreover, the “log(1/SA)” value in series [2] was 7.63 ± 0.06 mg/mol.
For `COc1c(C)c2c3c(c1O[C@@H]1OC[C@@H](O)[C@H](O)[C@H]1O)[C@@H](C)CC[C@@H]3[C@@H](C)C[C@@H]2C=C(C)C` [Analog 3, PsA methyl ether], the chromatographic logP in [1] is 4.37 ± 0.02. In addition, the “efficacy in wound healing” value in series [14] is on record as “topical efficacy”. Also, in series [15], the “effect on early wound repair above vehicle alone” value was “increased angiogenesis, granulation, and re-epithelialization”.
In the case of `CC(C)=C[C@H]1C[C@H](C)[C@H]2CC[C@H](C)c3c(O[C@@H]4O[C@@H](C)[C@@H](O)[C@@H](O)[C@@H]4O)c(O)c(C)c1c32` [Analog 5, iso-PsE], in series [1], the chromatographic logP amounted to 4.59 ± 0.05. Also, in [2], the “log(1/SA)” value is 8.02 ± 0.02 mg/mol.
